For 16 molecules, efflux ratio, IC50 and Papp results are on record in US11414404B2, “Compounds for the treatment of BRAF-associated diseases and disorders” (Array BioPharma Inc., priority 2019, dated 2022).

Counter-ions that a name gives are not always drawn.

The target of one data set is BCRP (Homo sapiens (Human), UniProt Q9UNQ0). As to the kind of experiment: BCRP MDCKII permeability assay: efflux ratio. To be noted: dog.
Another data set concerns the target P-gp (MDR1) (Homo sapiens (Human), UniProt P08183). As to the kind of experiment: MDR1 LLC-PK1 permeability assay: efflux ratio. To be noted: pig, LLC-PK1.
Data set [1] deals with full-length FLAG-tagged B-Raf(V600E) (Homo sapiens (Human), UniProt P15056, V600E). In words: BRAF V600E enzyme assay (TR-FRET competitive displacement of fluorescent tracer). It is filed as binding. To be noted: averaged IC50; 60 min at ambient temperature; 11-point dosing, top dose 10 μM. The source says: A competitive displacement assay was configured for B-Raf that monitors the amount of a fluorescently-tagged “tracer” bound to B-Raf via TR-FRET from an anti-tag Eu-labeled antibody also bound to B-Raf.
[formula] • where: • Xmax Average Uninhibited Controls • Xmin Average Background
A 4-parameter logistic model was the fit to the POC data for each compound.
A general note: In TR-FRET formats the signal depends on donor and acceptor labels being close together.

Data set [2] is described as follows: MDR1 LLC-PK1 and BCRP MDCKII permeability assay: permeability coefficient (Papp).

For orientation: efflux ratio means the permeability from basolateral to apical divided by that in the opposite direction, in the common usage. As a reminder, the IC50 is the concentration that gives 50% inhibition. The Papp is the rate of passage across a membrane or cell layer, normalised by area and donor concentration. A low value points to poor permeation.

Chain of full-length FLAG-tagged B-Raf(V600E) (P15056 whole entry V600E): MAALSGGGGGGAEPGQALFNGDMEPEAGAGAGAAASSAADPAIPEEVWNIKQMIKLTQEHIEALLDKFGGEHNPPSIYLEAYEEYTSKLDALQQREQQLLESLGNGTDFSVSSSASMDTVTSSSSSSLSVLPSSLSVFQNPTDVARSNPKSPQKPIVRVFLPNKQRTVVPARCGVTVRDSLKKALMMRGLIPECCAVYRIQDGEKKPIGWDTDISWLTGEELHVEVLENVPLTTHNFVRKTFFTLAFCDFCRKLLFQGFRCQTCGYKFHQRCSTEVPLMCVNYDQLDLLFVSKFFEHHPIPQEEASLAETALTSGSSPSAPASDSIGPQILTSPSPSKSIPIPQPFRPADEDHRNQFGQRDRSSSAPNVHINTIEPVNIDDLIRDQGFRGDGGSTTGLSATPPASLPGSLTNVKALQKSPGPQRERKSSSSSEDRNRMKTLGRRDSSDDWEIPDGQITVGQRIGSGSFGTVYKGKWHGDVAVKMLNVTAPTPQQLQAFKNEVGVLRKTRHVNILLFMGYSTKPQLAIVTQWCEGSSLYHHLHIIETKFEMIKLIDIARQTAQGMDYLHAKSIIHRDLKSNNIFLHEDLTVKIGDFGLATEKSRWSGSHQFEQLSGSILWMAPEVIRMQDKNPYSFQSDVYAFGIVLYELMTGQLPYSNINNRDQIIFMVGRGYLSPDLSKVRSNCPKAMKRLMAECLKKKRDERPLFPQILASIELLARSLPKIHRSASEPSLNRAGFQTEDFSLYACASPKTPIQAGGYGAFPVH
Chain of BCRP (Q9UNQ0 whole entry, species assumed): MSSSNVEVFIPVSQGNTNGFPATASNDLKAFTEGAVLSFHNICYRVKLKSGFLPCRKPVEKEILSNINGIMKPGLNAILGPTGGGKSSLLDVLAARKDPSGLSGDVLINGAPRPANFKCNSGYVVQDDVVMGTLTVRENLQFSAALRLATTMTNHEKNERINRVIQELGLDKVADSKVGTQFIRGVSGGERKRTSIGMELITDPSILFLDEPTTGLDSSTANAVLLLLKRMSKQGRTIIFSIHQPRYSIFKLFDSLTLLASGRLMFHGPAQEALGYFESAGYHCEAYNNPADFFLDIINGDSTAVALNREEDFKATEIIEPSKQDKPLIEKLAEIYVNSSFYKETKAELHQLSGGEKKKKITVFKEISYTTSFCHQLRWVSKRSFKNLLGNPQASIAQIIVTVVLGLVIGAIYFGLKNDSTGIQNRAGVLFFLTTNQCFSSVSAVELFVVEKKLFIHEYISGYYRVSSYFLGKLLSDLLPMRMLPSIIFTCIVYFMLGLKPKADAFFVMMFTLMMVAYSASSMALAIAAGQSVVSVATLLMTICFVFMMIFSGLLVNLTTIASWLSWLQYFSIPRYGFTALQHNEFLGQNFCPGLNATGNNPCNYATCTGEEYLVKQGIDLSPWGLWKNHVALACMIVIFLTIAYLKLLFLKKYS
Chain of P-gp (MDR1) (P08183 whole entry, species assumed): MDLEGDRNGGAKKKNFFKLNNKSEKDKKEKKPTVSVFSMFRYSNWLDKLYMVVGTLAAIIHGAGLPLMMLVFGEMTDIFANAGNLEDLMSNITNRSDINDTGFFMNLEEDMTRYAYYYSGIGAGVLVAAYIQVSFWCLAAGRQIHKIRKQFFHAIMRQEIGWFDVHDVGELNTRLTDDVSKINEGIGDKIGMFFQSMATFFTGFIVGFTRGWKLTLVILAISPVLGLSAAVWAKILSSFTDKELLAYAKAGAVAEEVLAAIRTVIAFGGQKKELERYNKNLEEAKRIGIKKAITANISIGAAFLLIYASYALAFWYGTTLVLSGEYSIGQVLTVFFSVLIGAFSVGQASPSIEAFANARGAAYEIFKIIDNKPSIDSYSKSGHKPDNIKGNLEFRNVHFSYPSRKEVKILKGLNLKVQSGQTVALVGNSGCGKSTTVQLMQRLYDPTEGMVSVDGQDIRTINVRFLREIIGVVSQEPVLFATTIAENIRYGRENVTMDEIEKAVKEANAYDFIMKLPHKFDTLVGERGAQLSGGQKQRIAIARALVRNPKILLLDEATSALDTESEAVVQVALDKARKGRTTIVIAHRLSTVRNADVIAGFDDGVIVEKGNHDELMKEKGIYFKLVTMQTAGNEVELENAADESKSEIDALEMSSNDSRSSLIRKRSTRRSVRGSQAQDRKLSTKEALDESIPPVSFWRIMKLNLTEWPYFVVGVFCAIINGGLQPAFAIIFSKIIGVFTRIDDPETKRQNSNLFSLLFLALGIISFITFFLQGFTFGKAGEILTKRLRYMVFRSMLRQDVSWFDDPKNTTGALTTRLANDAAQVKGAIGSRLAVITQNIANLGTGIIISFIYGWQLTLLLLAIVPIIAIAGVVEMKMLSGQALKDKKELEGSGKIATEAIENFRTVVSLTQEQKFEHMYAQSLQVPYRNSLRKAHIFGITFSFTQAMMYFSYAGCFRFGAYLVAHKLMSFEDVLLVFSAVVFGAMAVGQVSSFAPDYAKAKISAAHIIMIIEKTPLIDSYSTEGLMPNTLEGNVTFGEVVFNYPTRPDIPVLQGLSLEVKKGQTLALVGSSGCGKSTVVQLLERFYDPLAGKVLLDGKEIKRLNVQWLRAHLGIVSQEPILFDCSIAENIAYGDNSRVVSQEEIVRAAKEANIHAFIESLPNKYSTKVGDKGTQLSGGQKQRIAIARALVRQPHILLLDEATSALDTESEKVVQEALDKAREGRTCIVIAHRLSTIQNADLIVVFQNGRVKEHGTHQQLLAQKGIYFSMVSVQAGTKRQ
Procedure for P-gp (MDR1): Both LLC-PK1 and MDR1 transfected LLC-PK1 cells were cultured and plated according to manufacturer's recommendations with the exception that the passage media contained only 2% fetal bovine serum to extend passage time out to seven days.
Both positive and negative controls were used to assess functionality of P-gp or BCRP efflux in the assays. […] Final organic concentration in the assay was 1%. All dosing solutions contained 10 μM lucifer yellow to monitor LLC-PK1 or MDCKII cell monolayer integrity.
For the apical to basolateral determination (A to B), 75 μL of the test article in transport buffer were added to the apical side of the individual transwells and 250 μL of basolateral media, without compound or lucifer yellow, were added to each well. For the basolateral to apical determination (B to A), 250 μL of test article in transport buffer were added to each well and 75 μL transport buffer, without compound or lucifer yellow, were added to each transwell. All tests were performed in triplicate, and each compound was tested for both apical to basolateral and basolateral to apical transport. The plates were incubated for 2 hours on a Lab-Line Instruments Titer Orbital Shaker (VWR, West Chester, Pa.) at 50 rpm and 37° C. with 5% CO2. All culture plates were removed from the incubator and 50 μL of media were removed from the apical and basolateral portion of each well and added to 150 μL of 1 μM labetalol in 2:1 acetonitrile (acetonitrile): H2O, v/v.
These values were accepted when found to be below 2% for apical to basolateral and 5% basolateral to apical flux across the MDR1-transfected LLC-PK1 or BCRP-transfected MDCKII cell monolayers. The plates were sealed and the contents of each well analyzed by LC-MS/MS. The compound concentrations were determined from the ratio of the peak areas of the compound to the internal standard (labetalol) in comparison to the dosing solution.
The LC-MS/MS system was comprised of an HTS-PAL autosampler (Leap Technologies, Carrboro, N.C.), an HP1200 HPLC (Agilent, Palo Alto, Calif.), and a MDS Sciex 4000 Q Trap system (Applied Biosystems, Foster City, Calif.). […] The total run time, including re-equilibration, for a single injection was 1.2 minutes. Mass spectrometric detection of the analytes was accomplished using the ion spray positive mode.
An efflux ratio is calculated from the mean apical to basolateral (A−B) Papp data and basolateral to apical (B−A) Papp data: Efflux ratio=Papp(B−A)/Papp(A−B)

For the molecule `CCCS(=O)(=O)Nc1ccc(F)c(Nc2ccc3ncn(C4CCC4)c(=O)c3c2C)c1Cl` [Example 33, N-(2-chloro-3-((3-cyclobutyl-5-methyl-4-oxo-3,4-dihydroquinazolin-6-yl)amino)-4-fluorophenyl)propane-1-sulfonamide trifluoroacetate], the efflux ratio at 2 h, 1 µM on BCRP is 1.33; on P-gp (MDR1), 1.2. The IC50 in data set [1] was determined as 24 nM. This molecule yielded a Papp at 2 h, 1 µM in data set [2] of 21.9 ×10⁻⁶ cm/s.
On to `CCCS(=O)(=O)Nc1ccc(F)c(Nc2ccc3ncn([C@@H]4CCOC4)c(=O)c3c2C)c1Cl` [Example 34, (R)-N-(2-chloro-4-fluoro-3-((5-methyl-4-oxo-3-(tetrahydrofuran-3-yl)-3,4-dihydroquinazolin-6-yl)amino)phenyl)propane-1-sulfonamide trifluoroacetate], for which the efflux ratio at 2 h, 1 µM worked out at 2.19 on BCRP and 1.81 on P-gp (MDR1). In addition, in data set [1], the IC50 came to 8.9 nM. Moreover, the Papp at 2 h, 1 µM in data set [2] was 27.7 ×10⁻⁶ cm/s.
As for `CCCS(=O)(=O)Nc1ccc(F)c(Nc2ccc3ncn([C@H]4CCOC4)c(=O)c3c2C)c1Cl` [Example 35, (S)-N-(2-chloro-4-fluoro-3-((5-methyl-4-oxo-3-(tetrahydrofuran-3-yl)-3,4-dihydroquinazolin-6-yl)amino)phenyl)propane-1-sulfonamide trifluoroacetate], the figures for the efflux ratio at 2 h, 1 µM at BCRP and on P-gp (MDR1) were 1.78 and 1.92, respectively. Moreover, the IC50 in data set [1] was found to be 24.5 nM. In data set [2], this molecule had a Papp at 2 h, 1 µM of 29.4 ×10⁻⁶ cm/s.
Turning to `CCCS(=O)(=O)Nc1ccc(F)c(Nc2ccc3ncn(CC)c(=O)c3c2C)c1Cl` [Example 37, N-(2-chloro-3-((3-ethyl-5-methyl-4-oxo-3,4-dihydroquinazolin-6-yl)amino)-4-fluorophenyl)propane-1-sulfonamide trifluoroacetate], the efflux ratio at 2 h, 1 µM worked out at 0.87 at BCRP and 0.94 at P-gp (MDR1). The same molecule showed an IC50 in data set [1] of 5.5 nM. Also, the Papp at 2 h, 1 µM in data set [2] was 29.9 ×10⁻⁶ cm/s.
Taken in the same sequence, the figures for `CCCS(=O)(=O)Nc1ccc(F)c(Nc2ccc3ncn(CC4CC4)c(=O)c3c2C)c1Cl` [Example 38, N-(2-chloro-3-((3-(cyclopropylmethyl)-5-methyl-4-oxo-3,4-dihydroquinazolin-6-yl)amino)-4-fluorophenyl)propane-1-sulfonamide] were 1.57, 1.15, 28.3 nM and 20.6 ×10⁻⁶ cm/s.
Taken in the same sequence, the figures for `CCCS(=O)(=O)Nc1ccc(F)c(Nc2ccc3ncn(C4CCCC4)c(=O)c3c2C)c1Cl` [Example 39, N-(2-chloro-3-((3-cyclopentyl-5-methyl-4-oxo-3,4-dihydroquinazolin-6-yl)amino)-4-fluorophenyl)propane-1-sulfonamide trifluoroacetate] were 1.33, 1.29, 52.6 nM and 14.2 ×10⁻⁶ cm/s.
Taken in the same sequence, the figures for `CCCS(=O)(=O)Nc1ccc(Cl)c(Nc2ccc3ncn(C)c(=O)c3c2C)c1F` [Example 40, N-(4-chloro-3-((3,5-dimethyl-4-oxo-3,4-dihydroquinazolin-6-yl)amino)-2-fluorophenyl)propane-1-sulfonamide] were 2.87, 2.2, 43.9 nM and 28.7 ×10⁻⁶ cm/s.
Take `CCCS(=O)(=O)Nc1ccc(F)c(Nc2ccc3ncn(C)c(=O)c3c2C)c1C` [Example 41, N-(3-((3,5-dimethyl-4-oxo-3,4-dihydroquinazolin-6-yl)amino)-4-fluoro-2-methylphenyl)propane-1-sulfonamide]: the efflux ratio at 2 h, 1 µM at BCRP was determined as 3.28; on P-gp (MDR1) it was 2.79. In data set [1], this molecule gave an IC50 of 2820 nM. Further, the Papp at 2 h, 1 µM in data set [2] stood at 29.8 ×10⁻⁶ cm/s.
Taken in the same sequence, the figures for `Cc1c(Nc2cc(F)cc(NS(=O)(=O)CCCF)c2Cl)ccc2ncn(C)c(=O)c12` [Example 44, N-(2-chloro-3-((3,5-dimethyl-4-oxo-3,4-dihydroquinazolin-6-yl)amino)-5-fluorophenyl)-3-fluoropropane-1-sulfonamide] were 2.84, 1.05, 6.05 nM and 24.2 ×10⁻⁶ cm/s.
In the case of `Cc1c(Nc2c(F)ccc(NS(=O)(=O)c3ccccc3)c2Cl)ccc2ncn(C)c(=O)c12` [Example 49, N-(2-chloro-3-((3,5-dimethyl-4-oxo-3,4-dihydroquinazolin-6-yl)amino)-4-fluorophenyl)benzenesulfonamide], the results for the efflux ratio at 2 h, 1 µM at BCRP and at P-gp (MDR1) were 0.97 and 1.24, respectively. The IC50 in data set [1] was 3.95 nM. In data set [2], this molecule gave a Papp at 2 h, 1 µM of 30.7 ×10⁻⁶ cm/s.
For `CCCS(=O)(=O)Nc1ccc(F)c(Nc2ccc3ncn(-c4cccnc4)c(=O)c3c2C)c1Cl` [Example 58, N-(2-chloro-4-fluoro-3-((5-methyl-4-oxo-3-(pyridin-3-yl)-3,4-dihydroquinazolin-6-yl)amino)phenyl)propane-1-sulfonamide], the efflux ratio at 2 h, 1 µM came out at 1.93 at BCRP and 2.26 at P-gp (MDR1). The IC50 in data set [1] is 35.5 nM. Moreover, in data set [2], the Papp at 2 h, 1 µM stood at 27.6 ×10⁻⁶ cm/s.
On to `CCCS(=O)(=O)Nc1ccc(F)c(Nc2ccc3ncn(CC(F)(F)F)c(=O)c3c2C)c1Cl` [Example 59, N-(2-chloro-4-fluoro-3-((5-methyl-4-oxo-3-(2,2,2-trifluoroethyl)-3,4-dihydroquinazolin-6-yl)amino)phenyl)propane-1-sulfonamide], for which the figures for the efflux ratio at 2 h, 1 µM at BCRP and at P-gp (MDR1) were 1.08 and 1.36, respectively. Further, the IC50 in data set [1] is 3.4 nM. The same molecule had a Papp at 2 h, 1 µM in data set [2] of 25.1 ×10⁻⁶ cm/s.
For the molecule `C#Cc1c(Nc2c(F)ccc(NS(=O)(=O)CCC)c2Cl)ccc2ncn(C)c(=O)c12` [Example 60, N-(2-chloro-3-((5-ethynyl-3-methyl-4-oxo-3,4-dihydroquinazolin-6-yl)amino)-4-fluorophenyl)propane-1-sulfonamide], the values for the efflux ratio at 2 h, 1 µM at BCRP and at P-gp (MDR1) were 2.35 and 2.3, respectively. In data set [1], this molecule came in with an IC50 of 9.25 nM. Moreover, in data set [2], the Papp at 2 h, 1 µM came out at 29 ×10⁻⁶ cm/s.
The corresponding values for `CCC(C)S(=O)(=O)Nc1ccc(F)c(Nc2ccc3ncn(C)c(=O)c3c2C)c1Cl` (stereo not shown) [Example 61, N-(2-chloro-3-((3,5-dimethyl-4-oxo-3,4-dihydroquinazolin-6-yl)amino)-4-fluorophenyl)butane-2-sulfonamide] are 0.84, 1.2, 97.7 nM and 26.6 ×10⁻⁶ cm/s.
The corresponding values for `CCCS(=O)(=O)Nc1ncc(F)c(Oc2ccc3ncn(C)c(=O)c3c2C)c1F` [Example 62, N-(4-((3,5-dimethyl-4-oxo-3,4-dihydroquinazolin-6-yl)oxy)-3,5-difluoropyridin-2-yl)propane-1-sulfonamide] are 22.5, 2.3, 15.8 nM and 26.3 ×10⁻⁶ cm/s.
In the case of `Cc1c(Oc2c(F)cnc(NS(=O)(=O)CCCF)c2F)ccc2ncn(C)c(=O)c12` [Example 64, N-(4-((3,5-dimethyl-4-oxo-3,4-dihydroquinazolin-6-yl)oxy)-3,5-difluoropyridin-2-yl)-3-fluoropropane-1-sulfonamide], the efflux ratio at 2 h, 1 µM on BCRP stood at 31; at P-gp (MDR1) it was 10.9. In data set [1], this molecule had an IC50 of 10.4 nM. The molecule also yielded a Papp at 2 h, 1 µM in data set [2] of 9.78 ×10⁻⁶ cm/s.
